The source of these data is publication PMC10901194, “Boronic acid inhibitors of penicillin-binding protein 1b: serine and lysine labelling agents” (Journal of Enzyme Inhibition and Medicinal Chemistry, 2024).

The structures appear in SMILES notation. Values after ≈ are worked out from the molar mass of the structure shown. Values joined by “and” are separate entries in the source; they are usually repeats but may differ in a detail not shown here. Identical values can stand only once. Like-named read-outs stand apart in the source and are kept apart here.

Experiment [1] addresses T1, PBP1b (Streptococcus pneumoniae, UniProt Q7CRA4). The experiment is described as follows: PBP1b inhibition, hydrolysis of thioester substrate analogue (residual activity, IC50). It counts as biochemical. The procedure:
The inhibitory activity of 26 compounds was tested in the assay[31] employing a thioester substrate analogue at a concentration of 500 and 50 µM (Table S1).
Residual activities were determined by the ability of a potential inhibitor to hinder the hydrolysis of substrate analogue thioester (2-((benzoyl-D-alanyl)thio)acetic acid) as already described. PBP1b, prepared according to literature[31] (0.8 µM), was incubated with potential inhibitor (final concentration 500 µM) in 10 mM sodium phosphate buffer (pH = 7.0) in the presence of 100 mM D-alanine, 0.01 mg/mL BSA, and 0.01% Triton-X-100 for 60 min at 25 °C. After preincubation, the 5,5′-dithiobis-(2-nitrobenzoic acid) (DTNB) and thioester were added to each well to initiate the reaction and to obtain a final concentration of 1 mM and 5 mM, respectively. The final volume of the reaction was 150 µL. The initial rate of thioester hydrolysis was determined by measuring the absorbance at 412 nm for 30 min using a microtiter 96-well plate and Biotek Synergy H4 Hybrid microplate reader. The same assay was performed in the absence of an inhibitor. […] All experiments were run in triplicate. The ratio of the rate of reaction with inhibitor to the rate of reaction without compound expressed as a percentage gives the (RA [%] = ((vi – b)/(vo – b)) * 100, where b is the blank value for the initial rate of spontaneous hydrolysis of the thioester in the presence of the potential inhibitor and in the absence of PBP1b). The IC50 values were determined by measuring the reaction rates at seven different inhibitor concentrations.

Experiment [2] deals with E. coli (ATCC 25922). The experiment is described as follows: Antimicrobial testing, broth microdilution (MIC). It counts as cell-based. As to conditions: Escherichia coli, ATCC25922; E. coli ATCC 25922, 20 h at 35 °C. Here is the method: (§1) Antimicrobial testing was carried out by the broth microdilution method in 96-well plate format following the CLSI guidelines and European Committee for Antimicrobial Susceptibility Testing recommendations. Bacterial suspension of specific bacterial strain equivalent to 0.5 McFarland turbidity standard was diluted with cation-adjusted Mueller Hinton broth to obtain a final inoculum of 10^5 CFU/mL. Compounds dissolved in DMSO and inoculum were mixed together and incubated for 20 h at 35 °C. After incubation the minimal inhibitory concentration (MIC) values were determined by visual inspection as the lowest dilution of compounds showing no turbidity. The MICs were determined against S. aureus (ATCC 29213) and E. coli (ATCC 25922) bacterial strains. Tetracycline was used as a positive control on every assay plate.
On the technique in general: Broth dilution looks for growth in wells or tubes with falling amounts of substance.

Experiment [3] deals with S. aureus (ATCC 29213). The experiment is described as follows: Antimicrobial testing, broth microdilution (MIC). It counts as cell-based. The note with it: Staphylococcus aureus, ATCC29213; S. aureus ATCC 29213, 20 h at 35 °C. The procedure: as §1
Experiment [4] has as its target T1, PBP1b. The experiment is described as follows: LC-MS/MS covalent labelling of PBP1b. As to conditions: 450-fold excess of compound, 45 °C, 2 h. The class given is binding. The procedure:
Further experimental study of 2-formylbenzeneboronic acid 29 and 30 was performed to characterise their binding.
The measurements were preformed analogously to those reported in Kollár et al. and Petri et al.[68]^,[69] The protein stock solution (20.0 µL and 37.0 µM) was diluted with buffer solution (20.0 µL; pH 7.0; 20 mM Hepes, 100 mM NaCl, 1 mM EDTA, and 10% glycerol), then the stock solution of the inhibitor (0.66 µL, 500 mM in DMSO) was added. The sample was incubated at 45 °C for 120 min and then subjected to LC-MS/MS measurements. The molecular weights of the conjugates of PBP1b were identified using a Triple TOF 5600+ hybrid Quadrupole-TOF LC/MS/MS system (Sciex, Singapore, Woodlands) equipped with a DuoSpray IonSource coupled with a Shimadzu Prominence LC20 UFLC (Shimadzu, Kyoto, Japan) system consisting of binary pump, an autosampler and a thermostated column compartment.
Data acquisition and processing were performed using Analyst TF software version 1.7.1 (AB Sciex Instruments, Redwood City, CA). Chromatographic separation was achieved on a Merck BIOshell^TM 400 Å Protein C18 (75 mm × 2.1mm, 3.4 µm, 400 Å) HPLC column. Sample was eluted in gradient elution mode using solvent A (0.1% formic acid in water) and solvent B (0.1% formic acid in ACN). […]

The mark [5] stands for this setting: 1 h, pH 7, Table S1, 50 µM, 60 min preincubation; read-out: RA%@50µM PBP1b S.pneumoniae, 60 min preincubation.
Where [6] appears, read: 1 h, pH 7, Table S1, 500 µM, 60 min preincubation; read-out: RA%@500µM PBP1b S.pneumoniae, 60 min preincubation.
Where [7] appears, read: PBP1b 0.8 µM, 60 min preincubation at 25 °C, thioester substrate; read-out: IC50.
The mark [8] stands for this setting: 1 h, pH 7, residual activity at 500 µM inhibitor, 60 min preincubation; read-out: RA [%] @500 µM.

For the compound `CC(=O)c1ccccc1B(O)O` [Compound 31], the “PBP1b inhibition (in words)” value in experiment [1] was “inactive”. Moreover, the activity at 500 µM in experiment [1] (1 h, pH 7; read-out: RA [%] @500 µM) was 96.7%.
Regarding `CC(NC(=O)c1ccc(B(O)O)cc1)C1CCC(F)(F)CC1` (stereo not shown) [Compound 1], the MIC in experiment [2] and in experiment [3] was more than 250 µM each time. Moreover, in experiment [1] (setting [5]), the activity at 50 µM is 78.8 ± 2.7%. Besides, the activity at 500 µM in experiment [1] (setting [6]) was less than 50%. The IC50 in experiment [1] (setting [7]) is 127 ± 14.4 µM.
Consider `CCC(=O)Nc1cccc(C(=O)N2CCC(B(O)O)C2)c1` (stereo not shown) [Compound 5], for which the activity at 500 µM in experiment [1] (setting [8]) is 85.7 ± 9.5%.
In the case of `C[C@H]1[C@H](NC(=O)/C(=N\OC(C)(C)C(=O)O)c2csc(N)n2)C(=O)N1S(=O)(=O)O` [Aztreonam, reference compound], the activity at 500 µM in experiment [1] (1 h, pH 7, read-out: RA [%] @500 µM) worked out at 1.4 ± 0.1%. The IC50 in experiment [1] (IC50, PBP1b 0.8 µM, 60 min preincubation at 25 °C, thioester substrate) was less than 0.8 µM.
As for `O=Cc1cc(C(F)(F)F)ccc1B(O)O` [Compound 30], the MIC in experiment [2] and in experiment [3] was more than 250 µM throughout. Further, in experiment [4], the “labelling of PBP1b in MS/MS experiments” value was “single labelling of PBP1b was observed”. Also, the “PBP1b inhibition (in words)” value in experiment [1] is recorded as “inhibitors of PBP1b”. For the same compound, the time-dependent inhibition result in experiment [1] is reported as “No time-dependent inhibition”. The IC50 in experiment [1] (setting [7]) was 200 ± 15.3 µM.
Regarding `O=C(C1Cc2cccc(F)c2O1)N1CCC(B(O)O)C1` (stereo not shown) [Compound 4], the activity at 500 µM in experiment [1] (setting [8]) was 60.9 ± 7.6%.
On the same count and under the same terms, next, `Cc1cc(C(=O)N2CCC(B(O)O)C2)ccn1` (stereo not shown) [Compound 3]: 86.3 ± 8.4%.
Consider `Cn1cc(C(=O)NCB(O)O)nn1` [Compound 8], for which the MIC in experiment [2] and in experiment [3] was more than 250 µM throughout. Further, the IC50 in experiment [1] (setting [7]) was ~213 µM and 213 µM.
For the compound `Cn1cc(C(=O)N2CCC(B(O)O)C2)nn1` (stereo not shown) [Compound 6], in experiment [1] (setting [8]), the activity at 500 µM came out at 81.1 ± 1.6%.
On to `CC1(C)OB(c2ccccc2CNc2ccccc2C=O)OC1(C)C` [Compound 32], for which, in experiment [1], the “PBP1b inhibition (in words)” value is listed as “does not inhibit PBP1b at 1 mM concentration”. Moreover, in experiment [1] (setting [8]), the activity at 500 µM amounted to 96.6 ± 0.6%.
Consider `CC1(C)OB(C(CC(=O)N(Cc2ccccc2)Cc2ccccc2)NC(=O)c2ccccc2F)OC1(C)C` (stereo not shown) [Compound 18], for which the activity at 500 µM in experiment [1] (setting [8]) was 66.3 ± 7%.
As to `CC1(C)OB(C(CC(=O)Nc2ccccc2)NC(=O)c2ccccc2F)OC1(C)C` (stereo not shown) [Compound 17], the activity at 500 µM in experiment [1] (setting [8]) is 48.1 ± 2%.
Consider `O=C(NC(CC(=O)N(Cc1ccccc1)Cc1ccccc1)B(O)O)c1ccccc1F` (stereo not shown) [Compound 19], for which the minimum inhibitory concentration (MIC) in experiment [2] was more than 250 µM; in experiment [3] it was 62.5 µM (≈ 27.1 µg/mL). Further, the activity at 500 µM in experiment [1] (setting [8]) worked out at 68.9 ± 8.2%.
The compound `O=Cc1ccccc1B(O)O` [Compound 29] yielded an MIC in experiment [2] of more than 250 µM. Moreover, the minimal inhibitory concentration (MIC) in experiment [3] was more than 250 µM. Also, the “labelling of PBP1b in MS/MS experiments” value in experiment [4] is recorded as “single labelling of PBP1b was observed”. Also, in experiment [1], the “PBP1b inhibition (in words)” value is given as “inhibitors of PBP1b” and the time-dependent inhibition entry was “No time-dependent inhibition”. In addition, the IC50 in experiment [1] (setting [7]) came out at 119 ± 6 µM.
Regarding `O=C(NCB(O)O)c1ccccc1F` [Compound 9, reference compound], the minimum inhibitory concentration (MIC) in experiment [2] and in experiment [3] was more than 250 µM throughout. Besides, the 50% inhibitory concentration (IC50) in experiment [1] (setting [7]) amounted to 28.2 ± 7.4 µM. Also, the “free energy gain in complex formation (ΔGdc)” value in experiment [1] (from IC50 accepted as approximation to Ki) is -6.2 kcal/mol.
Regarding `O=Cc1ccccc1NCc1ccccc1B(O)O` [Compound 33], the “PBP1b inhibition (in words)” value in experiment [1] is listed as “slight activity in the millimolar concentration range”. For the same compound, the activity at 500 µM in experiment [1] (setting [8]) was 56.9 ± 0.8%.
As for `O=C(c1ccn(-c2cccc([N+](=O)[O-])c2)n1)N1CCC(B(O)O)C1` (stereo not shown) [Compound 2], the MIC in experiment [2] is more than 250 µM; in experiment [3], 125 µM (≈ 41.3 µg/mL). Moreover, in experiment [1] (setting [5]), the activity at 50 µM worked out at 83.5 ± 0.1%. Further, the activity at 500 µM in experiment [1] (setting [6]) was less than 50%. For the same compound, the IC50 in experiment [1] (setting [7]) was 206 ± 21.7 µM.

One may read the MIC as the lowest concentration that inhibits growth of the organism. Read a low MIC as greater potency. As a reminder, the IC50 is the concentration that inhibits the measured activity by half.
